Measurements as given in patent US10231954B2, “Neurodegenerative therapies” (LYTIX BIOPHARMA AS, priority 2014, dated 2019).
Where two headings read alike, the source gives them in different places.

Columns and labels:
Type in all cases: biochemical
[1] = target: T1, TAK1 (Homo sapiens, UniProt O43318); assay: Kinase profiling TAK1; details: for remaining activity at 100 µM: read-out: residual kinase activity, TAK1
T1 sequence (O43318 1-303 limits assumed): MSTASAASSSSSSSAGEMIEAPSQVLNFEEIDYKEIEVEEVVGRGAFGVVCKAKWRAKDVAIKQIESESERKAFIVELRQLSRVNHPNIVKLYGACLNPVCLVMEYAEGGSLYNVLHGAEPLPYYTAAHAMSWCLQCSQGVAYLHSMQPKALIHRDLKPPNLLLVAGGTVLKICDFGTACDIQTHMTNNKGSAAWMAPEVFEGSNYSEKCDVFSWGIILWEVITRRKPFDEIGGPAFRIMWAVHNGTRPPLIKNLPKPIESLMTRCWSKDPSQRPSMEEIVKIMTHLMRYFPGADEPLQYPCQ
T1 sequence (Q15750 437-504 partner limits assumed): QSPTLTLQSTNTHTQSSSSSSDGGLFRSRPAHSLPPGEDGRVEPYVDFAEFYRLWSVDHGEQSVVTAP
Text: (§1) Any value less that 25 is considered to be highly significant inhibition.

[2] = target: HER4 (Homo sapiens, UniProt Q15303); assay: Kinase profiling HER4; details: for remaining activity at 100 µM: read-out: residual kinase activity, HER4
Chain of HER4 (Q15303 26-1308, species assumed): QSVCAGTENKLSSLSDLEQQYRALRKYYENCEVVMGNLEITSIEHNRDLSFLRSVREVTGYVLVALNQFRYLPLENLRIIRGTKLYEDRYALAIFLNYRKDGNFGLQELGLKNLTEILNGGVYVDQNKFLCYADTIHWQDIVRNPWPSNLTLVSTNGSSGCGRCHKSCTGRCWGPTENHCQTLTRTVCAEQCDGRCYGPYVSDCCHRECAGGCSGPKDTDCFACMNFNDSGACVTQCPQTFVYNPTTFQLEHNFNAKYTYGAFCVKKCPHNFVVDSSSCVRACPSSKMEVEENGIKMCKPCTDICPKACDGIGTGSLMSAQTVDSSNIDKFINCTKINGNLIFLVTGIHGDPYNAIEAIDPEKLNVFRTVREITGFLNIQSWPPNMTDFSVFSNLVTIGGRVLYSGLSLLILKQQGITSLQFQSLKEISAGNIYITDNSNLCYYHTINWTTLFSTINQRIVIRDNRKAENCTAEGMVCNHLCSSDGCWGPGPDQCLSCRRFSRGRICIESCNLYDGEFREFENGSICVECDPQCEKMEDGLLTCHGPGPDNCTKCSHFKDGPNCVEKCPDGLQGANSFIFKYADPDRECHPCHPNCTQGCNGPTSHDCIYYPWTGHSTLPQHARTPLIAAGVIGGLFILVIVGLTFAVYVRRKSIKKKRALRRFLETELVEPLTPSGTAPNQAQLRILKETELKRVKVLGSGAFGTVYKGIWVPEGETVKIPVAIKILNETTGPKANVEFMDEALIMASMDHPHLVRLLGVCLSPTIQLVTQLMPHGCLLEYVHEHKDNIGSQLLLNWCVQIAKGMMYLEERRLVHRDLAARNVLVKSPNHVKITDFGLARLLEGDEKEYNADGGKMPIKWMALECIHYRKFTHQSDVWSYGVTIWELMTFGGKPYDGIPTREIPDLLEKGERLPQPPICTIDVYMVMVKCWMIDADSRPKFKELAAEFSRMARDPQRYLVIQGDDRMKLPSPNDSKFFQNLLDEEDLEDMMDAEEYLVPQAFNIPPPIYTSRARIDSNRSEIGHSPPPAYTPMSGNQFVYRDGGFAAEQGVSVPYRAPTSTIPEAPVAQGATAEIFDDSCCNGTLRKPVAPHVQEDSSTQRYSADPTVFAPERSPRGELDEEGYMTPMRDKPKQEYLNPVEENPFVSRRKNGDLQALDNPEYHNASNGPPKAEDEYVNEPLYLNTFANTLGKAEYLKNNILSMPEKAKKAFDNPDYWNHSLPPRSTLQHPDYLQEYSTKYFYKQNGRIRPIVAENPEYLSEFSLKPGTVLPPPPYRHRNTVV
Text: as §1

[3] = target: T2, MST2 (Homo sapiens, UniProt Q13188); assay: Kinase profiling MST2; details: for remaining activity at 100 µM: read-out: residual kinase activity, MST2
T2 sequence (Q13188 1-491): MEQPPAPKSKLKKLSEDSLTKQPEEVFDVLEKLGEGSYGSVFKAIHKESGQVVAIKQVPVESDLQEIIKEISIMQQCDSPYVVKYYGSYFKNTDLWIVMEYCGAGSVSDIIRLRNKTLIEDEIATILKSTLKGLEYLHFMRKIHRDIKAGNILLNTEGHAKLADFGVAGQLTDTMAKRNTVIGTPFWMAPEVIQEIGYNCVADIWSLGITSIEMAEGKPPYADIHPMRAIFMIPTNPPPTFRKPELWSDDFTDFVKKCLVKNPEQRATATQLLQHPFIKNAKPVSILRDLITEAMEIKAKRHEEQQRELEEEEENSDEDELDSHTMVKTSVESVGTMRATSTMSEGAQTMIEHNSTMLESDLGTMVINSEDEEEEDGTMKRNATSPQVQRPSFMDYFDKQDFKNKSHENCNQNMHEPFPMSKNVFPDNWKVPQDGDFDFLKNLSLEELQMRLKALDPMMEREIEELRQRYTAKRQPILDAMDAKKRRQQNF
Text: as §1

[4] = target: PAK4 (Homo sapiens, UniProt O96013); assay: Kinase profiling PAK4; details: for remaining activity at 100 µM: read-out: residual kinase activity, PAK4
Text: as §1

[5] = target: PRK2 (Homo sapiens, UniProt Q16513); assay: Kinase profiling PRK2; details: for remaining activity at 100 µM: read-out: residual kinase activity, PRK2
Chain of PRK2 (Q16513 whole entry, species assumed): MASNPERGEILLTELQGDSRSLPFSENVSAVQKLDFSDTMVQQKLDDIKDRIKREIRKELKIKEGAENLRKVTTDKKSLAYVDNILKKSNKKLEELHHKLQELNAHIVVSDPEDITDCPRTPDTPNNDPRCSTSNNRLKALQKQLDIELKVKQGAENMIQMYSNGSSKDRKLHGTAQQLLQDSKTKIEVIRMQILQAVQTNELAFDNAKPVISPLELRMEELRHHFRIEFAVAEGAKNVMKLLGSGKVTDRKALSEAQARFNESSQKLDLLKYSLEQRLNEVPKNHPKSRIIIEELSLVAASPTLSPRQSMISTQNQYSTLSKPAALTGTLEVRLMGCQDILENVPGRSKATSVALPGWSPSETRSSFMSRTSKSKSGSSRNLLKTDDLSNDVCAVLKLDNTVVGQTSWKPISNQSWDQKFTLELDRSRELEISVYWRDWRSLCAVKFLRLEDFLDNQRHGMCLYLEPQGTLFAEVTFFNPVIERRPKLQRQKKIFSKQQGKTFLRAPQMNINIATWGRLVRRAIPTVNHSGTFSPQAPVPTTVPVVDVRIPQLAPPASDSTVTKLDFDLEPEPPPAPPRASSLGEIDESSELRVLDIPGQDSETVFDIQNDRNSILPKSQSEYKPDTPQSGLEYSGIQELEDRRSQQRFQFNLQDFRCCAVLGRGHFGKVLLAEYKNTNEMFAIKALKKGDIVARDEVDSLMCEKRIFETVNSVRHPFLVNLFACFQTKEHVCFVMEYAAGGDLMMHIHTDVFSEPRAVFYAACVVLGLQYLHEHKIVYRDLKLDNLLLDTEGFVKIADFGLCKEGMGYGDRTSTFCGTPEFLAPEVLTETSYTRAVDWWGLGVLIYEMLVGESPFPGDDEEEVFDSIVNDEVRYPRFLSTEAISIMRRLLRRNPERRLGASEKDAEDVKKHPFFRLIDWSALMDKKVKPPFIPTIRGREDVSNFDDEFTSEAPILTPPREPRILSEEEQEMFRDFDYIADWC
Text: as §1

[6] = target: JNK1 (Homo sapiens, UniProt P45983); assay: Kinase profiling JNK1; details: for remaining activity at 100 µM: read-out: residual kinase activity, JNK1
Chain of JNK1 (P45983 whole entry, species assumed): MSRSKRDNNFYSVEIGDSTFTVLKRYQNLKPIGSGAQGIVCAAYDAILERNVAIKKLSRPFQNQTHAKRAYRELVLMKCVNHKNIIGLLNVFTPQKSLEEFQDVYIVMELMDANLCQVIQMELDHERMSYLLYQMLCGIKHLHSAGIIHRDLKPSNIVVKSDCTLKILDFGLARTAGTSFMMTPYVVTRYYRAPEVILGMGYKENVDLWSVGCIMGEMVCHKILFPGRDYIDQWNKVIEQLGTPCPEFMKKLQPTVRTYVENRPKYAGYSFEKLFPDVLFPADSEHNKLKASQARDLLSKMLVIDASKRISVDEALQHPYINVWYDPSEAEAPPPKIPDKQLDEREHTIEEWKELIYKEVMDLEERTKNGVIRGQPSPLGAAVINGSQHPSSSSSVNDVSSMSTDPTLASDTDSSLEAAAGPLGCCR
Text: as §1

[7] = target: T3, IRAK4 (Homo sapiens, UniProt Q9NWZ3); assay: Kinase profiling IRAK4; details: for remaining activity at 100 µM: read-out: residual kinase activity, IRAK4
T3 sequence (Q9NWZ3 1-460): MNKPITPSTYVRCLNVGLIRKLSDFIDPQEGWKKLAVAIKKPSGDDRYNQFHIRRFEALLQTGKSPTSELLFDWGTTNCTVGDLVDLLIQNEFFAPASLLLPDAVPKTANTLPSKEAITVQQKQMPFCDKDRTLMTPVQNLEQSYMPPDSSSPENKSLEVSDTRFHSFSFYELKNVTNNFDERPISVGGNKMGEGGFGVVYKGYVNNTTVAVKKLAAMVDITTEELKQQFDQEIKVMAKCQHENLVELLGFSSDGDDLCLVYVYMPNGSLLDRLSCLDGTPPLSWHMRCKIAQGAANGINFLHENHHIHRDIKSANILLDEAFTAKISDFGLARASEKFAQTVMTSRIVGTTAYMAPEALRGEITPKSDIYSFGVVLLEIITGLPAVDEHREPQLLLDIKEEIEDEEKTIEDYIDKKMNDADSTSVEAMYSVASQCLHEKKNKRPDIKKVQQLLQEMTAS
Text: as §1

[8] = target: MSK1 (Homo sapiens, UniProt O75582); assay: Kinase profiling MSK1; details: for remaining activity at 100 µM: read-out: residual kinase activity, MSK1
Text: as §1

[9] = target: SYK (Homo sapiens, UniProt P43405); assay: Kinase profiling SYK; details: for remaining activity at 100 µM: read-out: residual kinase activity, SYK
Text: as §1

[10] = target: IGF-1R (Homo sapiens, UniProt P08069); assay: Kinase profiling IGF-1R; details: for remaining activity at 100 µM: read-out: residual kinase activity, IGF-1R
Chain of IGF-1R (P08069 31-1367, species assumed): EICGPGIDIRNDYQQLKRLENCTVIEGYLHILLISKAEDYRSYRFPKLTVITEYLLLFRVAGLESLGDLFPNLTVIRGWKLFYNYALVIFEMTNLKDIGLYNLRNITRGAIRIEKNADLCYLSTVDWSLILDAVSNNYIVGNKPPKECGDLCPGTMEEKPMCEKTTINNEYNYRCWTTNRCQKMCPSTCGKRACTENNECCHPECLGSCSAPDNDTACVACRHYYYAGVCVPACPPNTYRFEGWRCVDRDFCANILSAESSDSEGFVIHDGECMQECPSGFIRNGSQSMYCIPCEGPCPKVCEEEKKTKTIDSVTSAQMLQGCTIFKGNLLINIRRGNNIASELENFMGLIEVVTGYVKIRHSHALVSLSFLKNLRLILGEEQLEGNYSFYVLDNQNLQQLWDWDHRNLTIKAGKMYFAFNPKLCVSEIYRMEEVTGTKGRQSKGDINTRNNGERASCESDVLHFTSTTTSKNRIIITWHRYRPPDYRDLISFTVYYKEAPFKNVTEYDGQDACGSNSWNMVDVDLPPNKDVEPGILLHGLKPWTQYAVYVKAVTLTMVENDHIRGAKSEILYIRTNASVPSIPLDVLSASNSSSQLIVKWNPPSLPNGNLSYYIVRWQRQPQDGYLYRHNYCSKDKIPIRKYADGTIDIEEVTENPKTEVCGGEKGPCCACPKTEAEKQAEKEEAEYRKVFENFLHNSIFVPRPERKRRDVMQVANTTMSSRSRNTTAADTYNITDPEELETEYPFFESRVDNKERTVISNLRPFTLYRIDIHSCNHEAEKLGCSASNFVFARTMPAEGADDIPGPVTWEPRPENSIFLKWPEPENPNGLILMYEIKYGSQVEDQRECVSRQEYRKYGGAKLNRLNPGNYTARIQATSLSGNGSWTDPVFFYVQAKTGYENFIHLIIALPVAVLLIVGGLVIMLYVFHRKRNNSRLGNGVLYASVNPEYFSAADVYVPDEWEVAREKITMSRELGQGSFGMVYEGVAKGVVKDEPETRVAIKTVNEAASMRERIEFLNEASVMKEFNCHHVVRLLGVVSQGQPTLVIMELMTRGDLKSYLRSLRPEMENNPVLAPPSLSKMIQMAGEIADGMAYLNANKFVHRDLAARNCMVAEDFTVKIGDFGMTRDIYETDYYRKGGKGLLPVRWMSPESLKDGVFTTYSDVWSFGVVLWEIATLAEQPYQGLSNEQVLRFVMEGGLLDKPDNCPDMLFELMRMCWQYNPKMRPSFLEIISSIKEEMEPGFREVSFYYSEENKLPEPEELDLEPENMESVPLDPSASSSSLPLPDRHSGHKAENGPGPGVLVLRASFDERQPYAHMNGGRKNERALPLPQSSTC
Text: as §1

[11] = target: S6K1 (Homo sapiens, UniProt P23443); assay: Kinase profiling S6K1; details: for remaining activity at 100 µM: read-out: residual kinase activity, S6K1
Chain of S6K1 (P23443 whole entry, species assumed): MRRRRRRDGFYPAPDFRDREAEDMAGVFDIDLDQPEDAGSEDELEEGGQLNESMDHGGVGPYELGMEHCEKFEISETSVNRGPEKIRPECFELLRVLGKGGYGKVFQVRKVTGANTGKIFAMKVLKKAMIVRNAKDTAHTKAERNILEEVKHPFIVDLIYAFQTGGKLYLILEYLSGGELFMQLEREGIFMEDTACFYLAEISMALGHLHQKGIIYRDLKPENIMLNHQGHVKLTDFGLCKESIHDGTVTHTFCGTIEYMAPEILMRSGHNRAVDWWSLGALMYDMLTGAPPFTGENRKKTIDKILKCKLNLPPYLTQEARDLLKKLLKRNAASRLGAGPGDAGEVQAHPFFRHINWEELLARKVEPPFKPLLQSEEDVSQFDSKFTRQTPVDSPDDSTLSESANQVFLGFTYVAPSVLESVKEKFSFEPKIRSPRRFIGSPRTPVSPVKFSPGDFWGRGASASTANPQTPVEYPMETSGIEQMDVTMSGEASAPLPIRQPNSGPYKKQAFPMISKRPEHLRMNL
Text: as §1

[12] = target: T4, PDK1 (Homo sapiens, UniProt O15530); assay: Kinase profiling PDK1; details: for remaining activity at 100 µM: read-out: residual kinase activity, PDK1
T4 sequence (O15530 1-556): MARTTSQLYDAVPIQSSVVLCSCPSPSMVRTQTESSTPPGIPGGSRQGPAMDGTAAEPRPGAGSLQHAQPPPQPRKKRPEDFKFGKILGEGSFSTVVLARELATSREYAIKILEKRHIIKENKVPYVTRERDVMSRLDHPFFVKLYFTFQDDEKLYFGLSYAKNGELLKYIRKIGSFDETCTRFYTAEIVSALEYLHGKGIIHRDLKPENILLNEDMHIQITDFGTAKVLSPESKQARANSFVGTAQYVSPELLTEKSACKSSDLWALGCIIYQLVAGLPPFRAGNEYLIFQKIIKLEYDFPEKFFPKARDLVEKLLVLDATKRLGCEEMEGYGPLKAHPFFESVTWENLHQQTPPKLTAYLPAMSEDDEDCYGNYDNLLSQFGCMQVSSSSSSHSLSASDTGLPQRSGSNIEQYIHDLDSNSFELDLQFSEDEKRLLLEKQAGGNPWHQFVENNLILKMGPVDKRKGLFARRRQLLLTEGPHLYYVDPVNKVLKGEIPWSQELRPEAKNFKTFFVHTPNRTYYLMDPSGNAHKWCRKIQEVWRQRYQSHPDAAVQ
Text: as §1

[13] = target: SmMLCK (Homo sapiens, UniProt Q15746); assay: Kinase profiling SmMLCK; details: 100 micromolar inhibitor concentration, 100 is no change; for remaining activity at 100 µM: read-out: residual kinase activity, SmMLCK
[14] = target: MLK3 (Homo sapiens, UniProt Q16584); assay: Kinase profiling MLK3; details: for remaining activity at 100 µM: read-out: residual kinase activity, MLK3
Text: as §1

[15] = target: PKBb (Homo sapiens, UniProt P31751); assay: Kinase profiling PKBb; details: for remaining activity at 100 µM: read-out: residual kinase activity, PKBb; for residual kinase activity, PKBb: 100 micromolar inhibitor concentration, 100 is no change
Chain of PKBb (P31751 whole entry): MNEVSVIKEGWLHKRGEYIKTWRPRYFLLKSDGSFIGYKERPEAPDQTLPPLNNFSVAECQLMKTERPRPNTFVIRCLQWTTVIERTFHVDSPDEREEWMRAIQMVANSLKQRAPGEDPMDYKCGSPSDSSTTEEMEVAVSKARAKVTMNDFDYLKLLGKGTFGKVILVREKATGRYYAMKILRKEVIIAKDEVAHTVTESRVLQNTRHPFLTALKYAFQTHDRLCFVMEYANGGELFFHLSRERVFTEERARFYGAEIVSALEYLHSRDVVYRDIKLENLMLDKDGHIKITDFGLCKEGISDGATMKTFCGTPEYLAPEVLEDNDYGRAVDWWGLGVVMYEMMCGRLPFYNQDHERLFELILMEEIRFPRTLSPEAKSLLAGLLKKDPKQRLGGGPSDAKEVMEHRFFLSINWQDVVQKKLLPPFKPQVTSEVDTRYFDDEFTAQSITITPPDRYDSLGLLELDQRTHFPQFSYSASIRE
Text: as §1

[16] = 100 micromolar inhibitor concentration, 100 is no change

Compound	residual kinase activity, TAK1 [1, 16]	residual kinase activity, HER4 [2, 16]	residual kinase activity, MST2 [3, 16]	residual kinase activity, PAK4 [4, 16]	residual kinase activity, PRK2 [5, 16]	residual kinase activity, JNK1 [6, 16]	residual kinase activity, IRAK4 [7, 16]	residual kinase activity, MSK1 [8, 16]	residual kinase activity, SYK [9, 16]	residual kinase activity, IGF-1R [10, 16]	residual kinase activity, S6K1 [11, 16]	residual kinase activity, PDK1 [12, 16]	residual kinase activity, SmMLCK [13]	residual kinase activity, MLK3 [14, 16]	residual kinase activity, PKBb [15]	further results
CC(=O)Nc1nc2cc(O)ccc2s1 [Compound 01-66, N-(5-hydroxybenzo[d]thiazol-2-yl)acetamide]	–	–	–	–	–	–	–	–	–	–	–	–	–	–	–	remaining activity at 100 µM [1]: 30%; remaining activity at 100 µM [2]: 40%; remaining activity at 100 µM [3]: 69%; remaining activity at 100 µM [4]: 66%; remaining activity at 100 µM [5]: 67%; remaining activity at 100 µM [6]: 53%; remaining activity at 100 µM [7]: 18%; remaining activity at 100 µM [8]: 62%; remaining activity at 100 µM [9]: 82%; remaining activity at 100 µM [10]: 26%; remaining activity at 100 µM [11]: 54%; remaining activity at 100 µM [12]: 69%; remaining activity at 100 µM [13]: 58%; remaining activity at 100 µM [14]: 41%; remaining activity at 100 µM [15]: 55%
CC(=O)Nc1nc2ccc(O)cc2s1 [Compound 01-71]	–	–	–	–	–	–	–	–	–	–	–	–	–	–	–	remaining activity at 100 µM [1, 16]: 11%; remaining activity at 100 µM [2, 16]: 36%; remaining activity at 100 µM [3, 16]: 56%; remaining activity at 100 µM [4, 16]: 51%; remaining activity at 100 µM [5, 16]: 36%; remaining activity at 100 µM [6, 16]: 72%; remaining activity at 100 µM [7, 16]: 13%; remaining activity at 100 µM [8, 16]: 31%; remaining activity at 100 µM [9, 16]: 71%; remaining activity at 100 µM [10, 16]: 18%; remaining activity at 100 µM [11, 16]: 23%; remaining activity at 100 µM [12, 16]: 63%; remaining activity at 100 µM [13]: 39%; remaining activity at 100 µM [14, 16]: 15%; remaining activity at 100 µM [15]: 57%
O=C(Nc1nc2cc(O)ccc2s1)c1cccnc1 [Compound 03-33]	73	48	73	92	85	111	42	92	86	50	75	100	52	48	93	–
O=C(Nc1nc2cc(O)ccc2s1)c1ccccn1 [Compound 03-13]	34	98	60	115	97	93	55	100	106	84	71	104	37	57	60	–
CC(=O)Nc1nc2cc(C)ccc2s1 [Compound 03-76]	52	85	75	101	84	97	51	84	72	75	77	93	62	35	91	–
O=C(Nc1nc2ccc(O)cc2s1)c1ccncc1 [Compound 08-42]	25	40	55	69	44	99	42	92	90	88	38	83	33	30	52	–
O=C(Nc1nc2ccc(O)cc2s1)c1ccccn1 [Compound 03-12]	33	33	61	87	66	105	54	90	99	54	50	88	9	46	61	–
